Earlier results as cited in patent US20230190754A1, “Therapeutic combinations for the treatment of Progressive Fibrosing interstitial lung diseases” (Boehringer Ingelheim International GmbH, priority 2021, published 2023).

Assays:
human lung fibroblasts = conditions: combination with nintedanib; cited from earlier work
PDE4 subtypes, A-D = conditions: cited from earlier work

In the case of `[O-][S@+]1CCc2nc(N3CCC(c4ncc(Cl)cn4)CC3)nc(NC3(CO)CCC3)c21` [Comp. of form. III], the “Effect on fibroblast proliferation (in words)” value (human lung fibroblasts) is given as “synergistic overadditive effect” and the “Preferential enzymatic inhibition among the PDE4 subtypes (in words)” value (PDE4 subtypes, A-D) is given as “inhibit preferentially the PDE4 B subtype”.
